Data published in article PMC11062899, “De novo development of small cyclic peptides that are orally bioavailable” (Nature Chemical Biology, 2023).
Where “and” joins values, the source holds several entries; their conditions need not be identical. Equal entries are not always repeated. Where two headings read alike, the source gives them in different places.

How the values were obtained:
porcine pepsin = molecular target: T1, porcine pepsin (Sus scrofa, UniProt P00791); experiment: Peptide stability in simulated gastric fluid (SGF); format: in vitro ADME
T1 construct: 0.32 g of porcine pepsin (Sigma-Aldrich, P7125) was dissolved under gentle agitation; purchased Sigma-Aldrich P7125
Summary of the method: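 Peptide from a 1 mM DMSO stock was added to fluid pre-warmed at 37 °C. SGF was pH 1.2 NaCl with porcine pepsin (0.32 g per 100 ml), and SIF was pH 6.8 potassium phosphate with porcine pancreatin (1 g per 100 ml). Supernatant peptide was quantified by LC–MS, with residual expressed as T1/T0.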

rat α-thrombin = molecular target: T2, rat α-thrombin (Rattus norvegicus, UniProt P18292); experiment: Protease inhibition, Ki for rat α-thrombin (fluorogenic substrate Z-Gly-Gly-Arg-AMC); format: biochemical; details: rat alpha thrombin; for Slope normalized to DMSO (proteolytic substrate cleavage over time): replicates R1-R3
T2 construct: rat α-thrombin (Molecular Innovations) were used at final concentrations of 2 nM and 3 nM; purchased Molecular Innovations
Summary of the method: (§1)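 Ki values come from Cheng–Prusoff correction of IC50, itself fitted by four-parameter logistic regression of activity versus a no-peptide control. Assays used 2 nM human or 3 nM rat thrombin, 50 μM Z-Gly-Gly-Arg-AMC, 30 min kinetic fluorescence at 25 °C.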

[1] = Passive artificial membrane permeability (PAMPA)
[2] = Metabolic stability in rat liver microsomes (RLMs); details: for microsomal CLint / half-life: rat
human α-thrombin = human α-thrombin (Homo sapiens, UniProt P00734); experiment: Protease inhibition, Ki for human α-thrombin (fluorogenic substrate Z-Gly-Gly-Arg-AMC); format: biochemical; details: human alpha thrombin; for Slope normalized to DMSO (proteolytic substrate cleavage over time): replicates R1-R3
Summary of the method: as §1

T1 sequence (P00791 60-385): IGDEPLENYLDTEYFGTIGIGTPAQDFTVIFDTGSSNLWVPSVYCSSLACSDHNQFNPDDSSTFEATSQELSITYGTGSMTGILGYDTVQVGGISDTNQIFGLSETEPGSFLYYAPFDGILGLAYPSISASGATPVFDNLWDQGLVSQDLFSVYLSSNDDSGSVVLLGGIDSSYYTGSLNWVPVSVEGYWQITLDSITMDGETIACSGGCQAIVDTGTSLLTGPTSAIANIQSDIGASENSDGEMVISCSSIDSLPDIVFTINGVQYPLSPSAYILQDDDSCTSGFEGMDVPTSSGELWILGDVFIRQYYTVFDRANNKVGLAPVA

SGF stability, Residual peptide Average (porcine pepsin; after 8 h vs 0 h (TIC), average of R1-R3): 98.71 | SGF stability, Residual peptide (porcine pepsin; after 8 h vs 0 h (TIC), single replicates R1-R3): 102.19 and 96.66 and 97.27 | remaining at 8 h (porcine pepsin; simulated gi fluid, 8 h, 37 °C, pH 1.2, read-out: Proteolytic stability: SGF (8 h) % remaining): 99 ± 3% | Ki (rat α-thrombin; average of R1-R3, read-out: Ki Average, rat alpha thrombin inhibition): 18.4 nM | Slope normalized to DMSO (proteolytic substrate cleavage over time) (rat α-thrombin; peptide 1.02E-03 uM): 95.3 and 93.5 and 90.4 | Slope normalized to DMSO (proteolytic substrate cleavage over time) (rat α-thrombin; peptide 1.04E+00 uM): 8.6 and 8.7 and 5.7 | Slope normalized to DMSO (proteolytic substrate cleavage over time) (rat α-thrombin; peptide 1.27E-04 uM): 96.6 and 98.1 and 94.9 | Slope normalized to DMSO (proteolytic substrate cleavage over time) (rat α-thrombin; peptide 1.30E-01 uM): 29.1 and 30.9 and 27.9 | Slope normalized to DMSO (proteolytic substrate cleavage over time) (rat α-thrombin; peptide 1.59E-05 uM): 99.9 and 100.8 and 98.0 | Slope normalized to DMSO (proteolytic substrate cleavage over time) (rat α-thrombin; peptide 1.63E-02 uM): 66.4 and 67.5 and 64.5 | Slope normalized to DMSO (proteolytic substrate cleavage over time) (rat α-thrombin; peptide 1.67E+01 uM): 5.5 and 6.4 and 3.4 | Slope normalized to DMSO (proteolytic substrate cleavage over time) (rat α-thrombin; peptide 2.03E-03 uM): 85.0 and 86.2 and 80.9 | Slope normalized to DMSO (proteolytic substrate cleavage over time) (rat α-thrombin; peptide 2.08E+00 uM): 8.2 and 8.0 and 6.0 | Slope normalized to DMSO (proteolytic substrate cleavage over time) (rat α-thrombin; peptide 2.54E-04 uM): 94.8 and 90.7 and 91.8 | Slope normalized to DMSO (proteolytic substrate cleavage over time) (rat α-thrombin; peptide 2.60E-01 uM): 20.1 and 21.2 and 15.6 | Slope normalized to DMSO (proteolytic substrate cleavage over time) (rat α-thrombin; peptide 3.18E-05 uM): 99.5 and 101.3 and 96.2 | Slope normalized to DMSO (proteolytic substrate cleavage over time) (rat α-thrombin; peptide 3.26E-02 uM): 58.6 and 59.5 and 55.9 | Slope normalized to DMSO (proteolytic substrate cleavage over time) (rat α-thrombin; peptide 3.33E+01 uM): 4.9 and 6.5 and 3.7 | Slope normalized to DMSO (proteolytic substrate cleavage over time) (rat α-thrombin; peptide 4.07E-03 uM): 77.2 and 73.8 and 74.9 | Slope normalized to DMSO (proteolytic substrate cleavage over time) (rat α-thrombin; peptide 4.17E+00 uM): 6.8 (2×) and -8.2 | Slope normalized to DMSO (proteolytic substrate cleavage over time) (rat α-thrombin; peptide 5.09E-04 uM): 92.2 and 90.6 and 87.0 | Slope normalized to DMSO (proteolytic substrate cleavage over time) (rat α-thrombin; peptide 5.21E-01 uM): 12.0 and 12.9 and 10.7 | Slope normalized to DMSO (proteolytic substrate cleavage over time) (rat α-thrombin; peptide 6.36E-05 uM): 97.8 and 99.0 and 94.4 | Slope normalized to DMSO (proteolytic substrate cleavage over time) (rat α-thrombin; peptide 6.51E-02 uM): 36.9 and 38.0 and 37.1 | Slope normalized to DMSO (proteolytic substrate cleavage over time) (rat α-thrombin; peptide 6.67E+01 uM): 5.7 and 6.9 and 3.2 | Slope normalized to DMSO (proteolytic substrate cleavage over time) (rat α-thrombin; peptide 7.95E-06 uM): 102.6 and 104.4 and 98.4 | Slope normalized to DMSO (proteolytic substrate cleavage over time) (rat α-thrombin; peptide 8.14E-03 uM): 67.4 and 67.8 and 64.3 | Slope normalized to DMSO (proteolytic substrate cleavage over time) (rat α-thrombin; peptide 8.33E+00 uM): 6.5 and 6.4 and -9.8 | IC50 (rat α-thrombin; single replicates R1-R3, read-out: IC50, rat alpha thrombin inhibition): 31.1 nM and 30.7 nM and 37.8 nM | PAMPA permeability: % permeability ([1]; 50 μM, 12–18 h, acceptor concentration relative to equilibrium): 21 ± 8% | Papp at 50 μM ([1]; PAMPA, pH 7.4): 2.24 ×10⁻⁶ cm/s | Permeability% Average ([1]; top well sample vs theoretical equilibrium sample (TIC), average of R1-R3): 21.1% | Permeability% ([1]; top well sample vs theoretical equilibrium sample (TIC), single replicates R1-R3): 16.62% and 15.98% and 30.80% | TIC value of compound, 0 min, R1 ([2]; rat liver microsomes, 0 min, replicate R1): 23625921 | TIC value of compound, 0 min, R3 ([2]; rat liver microsomes, 0 min, replicate R3): 25801224 | TIC value of compound, 5 min, R1 ([2]; rat liver microsomes, 5 min, replicate R1): 20860918 | TIC value of compound, 5 min, R3 ([2]; rat liver microsomes, 5 min, replicate R3): 23019710 | TIC value of compound, 15 min, R1 ([2]; rat liver microsomes, 15 min, replicate R1): 12779197 | TIC value of compound, 15 min, R3 ([2]; rat liver microsomes, 15 min, replicate R3): 13375542 | TIC value of compound, 30 min, R1 ([2]; rat liver microsomes, 30 min, replicate R1): 7192264 | TIC value of compound, 30 min, R3 ([2]; rat liver microsomes, 30 min, replicate R3): 5638202 | TIC value of compound, 60 min, R1 ([2]; rat liver microsomes, 60 min, replicate R1): 1618321 | TIC value of compound, 60 min, R3 ([2]; rat liver microsomes, 60 min, replicate R3): 1784495 | microsomal CLint ([2]; CL (ul/min/mg protein), R1, RLM CL, replicate R1, unrounded): 79 µL/min/mg | microsomal CLint ([2]; CL (ul/min/mg protein), R2, RLM CL, replicate R2, unrounded): 90.4 µL/min/mg | microsomal CLint ([2]; CL (ul/min/mg protein), R3, RLM CL, replicate R3, unrounded): 88.3 µL/min/mg | half-life ([2]; Half Life (min), R1, RLM metabolic stability, replicate R1): 17.6 min | half-life ([2]; Half Life (min), R2, RLM metabolic stability, replicate R2): 15.3 min | half-life ([2]; Half Life (min), R3, RLM metabolic stability, replicate R3): 15.7 min | half-life ([2]; microsomes, Metabolic stability: Half life T1/2 (min), RLMs, mean and SD, three measurements): 16.2 ± 1 min | microsomal CLint ([2]; microsomes, Metabolic stability: RLM CL (ul/min/mg), RLMs, mean and SD, three measurements): 86 ± 5 µL/min/mg | microsomal CLint ([2]; microsomes, RLM CL, Average, average of R1-R3): 85.9 µL/min/mg | microsomal CLint ([2]; microsomes, RLM CL, R1, RLM CL, replicate R1, summary block): 79 µL/min/mg | microsomal CLint ([2]; microsomes, RLM CL, R2, RLM CL, replicate R2, summary block): 90.3 µL/min/mg | microsomal CLint ([2]; microsomes, RLM CL, R3, RLM CL, replicate R3, summary block): 88.3 µL/min/mg | Ki (human α-thrombin; average of R1-R3, read-out: Ki Average, human alpha thrombin inhibition): 62.8 nM | Slope normalized to DMSO (proteolytic substrate cleavage over time) (human α-thrombin; peptide 1.02E-03 uM): 93.6 and 100.9 and 97.6 | Slope normalized to DMSO (proteolytic substrate cleavage over time) (human α-thrombin; peptide 1.04E+00 uM): 8.6 and 16.9 and 12.9 | Slope normalized to DMSO (proteolytic substrate cleavage over time) (human α-thrombin; peptide 1.27E-04 uM): 93.4 and 102.6 and 100.9 | Slope normalized to DMSO (proteolytic substrate cleavage over time) (human α-thrombin; peptide 1.30E-01 uM): 39.5 and 49.3 and 44.8 | Slope normalized to DMSO (proteolytic substrate cleavage over time) (human α-thrombin; peptide 1.59E-05 uM): 106.2 and 101.5 and 96.8 | Slope normalized to DMSO (proteolytic substrate cleavage over time) (human α-thrombin; peptide 1.63E-02 uM): 75.0 and 77.8 and 78.6 | Slope normalized to DMSO (proteolytic substrate cleavage over time) (human α-thrombin; peptide 1.67E+01 uM): -7.7 and 7.5 and 5.3 | Slope normalized to DMSO (proteolytic substrate cleavage over time) (human α-thrombin; peptide 2.03E-03 uM): 88.5 and 91.4 and 92.0 | Slope normalized to DMSO (proteolytic substrate cleavage over time) (human α-thrombin; peptide 2.08E+00 uM): 6.1 and 11.4 and 10.4 | Slope normalized to DMSO (proteolytic substrate cleavage over time) (human α-thrombin; peptide 2.54E-04 uM): 95.8 and 99.6 and 97.3 | Slope normalized to DMSO (proteolytic substrate cleavage over time) (human α-thrombin; peptide 2.60E-01 uM): 30.6 and 32.4 and 32.2 | Slope normalized to DMSO (proteolytic substrate cleavage over time) (human α-thrombin; peptide 3.18E-05 uM): 97.7 and 98.2 and 93.3 | Slope normalized to DMSO (proteolytic substrate cleavage over time) (human α-thrombin; peptide 3.26E-02 uM): 69.6 and 73.9 and 66.3 | Slope normalized to DMSO (proteolytic substrate cleavage over time) (human α-thrombin; peptide 3.33E+01 uM): 2.9 and 7.3 and 3.8 | Slope normalized to DMSO (proteolytic substrate cleavage over time) (human α-thrombin; peptide 4.07E-03 uM): 82.9 and 85.6 and 85.5 | Slope normalized to DMSO (proteolytic substrate cleavage over time) (human α-thrombin; peptide 4.17E+00 uM): 2.6 and 6.0 and 6.1 | Slope normalized to DMSO (proteolytic substrate cleavage over time) (human α-thrombin; peptide 5.09E-04 uM): 91.0 and 91.5 and 96.2 | Slope normalized to DMSO (proteolytic substrate cleavage over time) (human α-thrombin; peptide 5.21E-01 uM): 17.9 and 15.7 and 18.4 | Slope normalized to DMSO (proteolytic substrate cleavage over time) (human α-thrombin; peptide 6.36E-05 uM): 96.3 and 98.6 and 101.5 | Slope normalized to DMSO (proteolytic substrate cleavage over time) (human α-thrombin; peptide 6.51E-02 uM): 47.1 and 63.8 and 53.5 | Slope normalized to DMSO (proteolytic substrate cleavage over time) (human α-thrombin; peptide 6.67E+01 uM): 2.7 and 9.5 and 7.0 | Slope normalized to DMSO (proteolytic substrate cleavage over time) (human α-thrombin; peptide 7.95E-06 uM): 96.2 and 102.7 and 103.6 | Slope normalized to DMSO (proteolytic substrate cleavage over time) (human α-thrombin; peptide 8.14E-03 uM): 70.3 and 73.9 and 78.9 | Slope normalized to DMSO (proteolytic substrate cleavage over time) (human α-thrombin; peptide 8.33E+00 uM): 3.3 and 5.4 and 3.6 | IC50 (human α-thrombin; single replicates R1-R3, read-out: IC50, human alpha thrombin inhibition): 77.8 nM and 89.4 nM and 77.2 nM
SMILES: O=C1C[C@H]2CCCN2C(=O)[C@H](Cc2ccccc2)NC(=O)[C@@H](NC(=O)c2ccc(Cl)s2)CCCSCc2cccc(n2)CSCCN1 [compound 35]
Ki (rat α-thrombin; single replicates R1-R3, read-out: Ki, rat alpha thrombin inhibition): 17.2 nM (2×) and 17 nM (2×) and 20.9 nM (2×) | Ki (human α-thrombin; single replicates R1-R3, read-out: Ki, human alpha thrombin inhibition): 59.9 nM (2×) and 68.9 nM (2×) and 59.5 nM (2×)
